In assay [1] the test system is SW1 tumors. Briefly: itIC and splenic flow cytometric profiling, SW1 tumor-bearing C3H/HeN mice. The format is in vivo, mouse. Particulars: oral L-fuc; SW1 model. How it is done:
Tumors of SW1 or SM1 melanoma cells from […] or C57BL/6 mice, respectively) were digested using 1× tumor digest buffer (0.5 mg/mL Collagenase I, 0.5 mg/mL Collagenase IV, 0.25 mg/mL Hyalyronidase V, 0.1 mg/mL DNAse I in HBSS (Millipore Sigma (St. Louis, MO)). Tumors were homogenized using the Miltenyi MACs dissociator. Red blood cells were lysed using ACK lysis buffer (Life Technologies, (Grand Island, NY)). Tumor homogenate cells were counted using a standard hemocytometer.
Total TILs were gated first to single cells (based on forward scatter height vs width, followed by side scatter height vs. width). Live cells were gated from the Zombie negative population from the population above. TILs were gated based on splenocyte size from a control spleen. Individual immune subpopulations were sub-gated from the total TIL population using the following staining criteria: CD3^+ for CD3^+ T cells; CD3^+/CD4^+/CD8^− for CD4^+T cells; CD3^+/CD4^−/CD8^+ for CD8^+ T cells, CD11c^+/CD11b^+ for DCs; either NK1.1 (for C57/BL6 mice) or DX5 (for C3H/HeJ) for NK cells; CD11b^+/GR1^+ for MDSC-like cells; and F4/80^+ for macrophages. Single-cell suspensions from tumor and spleen tissue were stained with Live/Dead Zombie NIR (Biolegend, (San Diego, CA)) at 1:1,000 in PBS for 20 min. Cell suspensions were spun down and stained with the following with antibodies at 0.5 μg/ml per antibody: APC anti-mouse CD3, Pacific Blue anti-mouse CD4, BV785 anti-mouse CD8, PerCP anti-mouse CD25, FITC anti-mouse F4/80, PeCy7 anti-mouse CD11c, PE anti-mouse NK1.1 or PE anti-mouse DX5, and PerCP-Cy5.5 anti-mouse CD11b. After staining, the cells were washed and fixed (2% formaldehyde), followed by another wash and flow cytometric analysis. The compensation controls were prepared using 0.5 μg/mL of each antibody with UltraComp eBeads, (ThermoFisher Scientific (Waltham, MA)). All samples were subject to flow cytometric profiling using a LSR Flow Cytometer (BD Biosciences (San Jose, CA)) and analysis as indicated using FlowJo software (BD Biosciences (San Jose, CA)).
For orientation: Flow cytometry measures light scatter and fluorescence of single cells or particles in a stream.

A further assay has as its system PD-L1. Briefly: Flow cytometric assessment of cell surface PD-L1, mouse melanoma cells (SW1, SM1). The format is cell-based. As for the experimental part: Indicated cells were treated for 72 h with DMSO, 250 μM fucosyltransferase inhibitor (FUTi) (Millipore Sigma (St. Louis, MO)), or 250 μM of L-fucose (Biosynth (Oak Terrace, IL)). After 72 h, cells were stained with 0.1 μM PKH26 (Millipore Sigma (St. Louis, MO)) prior to fixation in 4% formaldehyde solution. The cells were stained with anti-HLA-DRB1 and fluorescein AAL, or anti-human or anti-mouse PD-L1 overnight. The following day the cells were washed 3 times prior to adding AlexaFluor 594 donkey anti-rabbit. Cells were washed 3 times and then subject to flow cytometric analyses using a FACSCalibur (BD Biosciences (San Jose, CA)). Samples were analyzed using FlowJo analysis software (BD Biosciences (San Jose, CA)). Median values of DRB1 and AAL were normalized to PKH26 values and statistical analysis was performed using GraphPad Prism.

The next assay concerns HLA-DRB1. Briefly: qRT-PCR and immunoblot of HLA-DRB1 mRNA and protein levels in melanoma cells. The settings on record: 250 μM. The format is cell-based, human. How it is done:
Cells were lysed on ice in RIPA lysis buffer (25 mM Tris-HCl pH 7.6, 150 mM NaCl, 5 mM EDTA, 1% NP-40 or 1% Triton X-100, 1% sodium deoxycholate, 0.1% SDS in diH2O+protease and phosphatase inhibitors (ThermoFisher Scientific (Waltham, MA)), briefly sonicated, pelleted, and the resulting lysates were normalized by protein concentration using DC assay (BioRad Laboratories, (Hercules, CA)). The indicated samples were subjected to (12%) SDS-PAGE and immunoblot analysis using the indicated antibodies. Immunoblot imaging and analysis was performed using either an Odyssey FC scanner and ImageStudio (LiCor Biosciences, Lincoln, NE) or film.
RNA from cells subjected to the indicated treatments was extracted using Gene Elute Mammalian Total RNA Extraction System (Millipore Sigma (St. Louis, MO)). RNA was reversed transcribed to cDNA using High-Capacity cDNA Reverse Transcription Kit (ThermoFisher Scientific (Waltham, MA)). qRT-PCR analysis was performed using FastStart Universal SYBR Green Master Mix (Rox) (Roche Diagnostics, (Indianapolis, IN)) using a BioRad CFX96 Real-time system (BioRad Laboratories, (Hercules, CA)). The qRT-PCR cycles used were as follows: 95° C. for 10 min, 35 cycles of 95° C. for 15 seconds, 55° C. for 60 seconds,
and 72° C. for 30 seconds. Expression of the indicated genes was normalized to histone H3A expression. […]

The test system of a further assay is BMMC. Briefly: Flow cytometric DC polarization of BMMC. The format is cell-based. How it is done:
We next investigated the effect of L-fucose on dendritic cell differentiation. To test whether L-fucose affected immature or mature myeloid cells preferentially, BMMC were treated with L-fucose at various stages of development, pre=before maturation cocktail, concurrent=during maturation cocktail or post=after maturation cocktail (FIG. 23A). […] We next sought to determine if L-fucose equally affected subpopulations of DCs. By flow cytometric analysis we were able to determine that moDC are affected most by the modulation of fucosylation in immature myeloid cell populations.

In a further assay the test system is CD209. Briefly: DC broad panel analysis and signaling array on phosphorylated proteins. The format is cell-based. The source says:
To better understand the phenotype of DC subsets after L-fucose treatment, we preformed broad panel analysis to highlight unique subsets of DCs, including markers of activation, cross presentation and known signaling mechanisms. […] To determine if this increased expression was related to any other signaling changes we performed a signaling array on key phosphorylated proteins on activated DCs after L-fucose treatment. […] From this, we concluded that L-fucose increases expression of CD209 and modulates downstream signaling paths

For assay [2], the system named is SW1 tumors. Briefly: DC clustering by CD11c in SW1 tumors from mice treated +/- L-fucose. The settings on record: mouse, in vivo.

For the compound `C[C@H](O)[C@@H](O)[C@@H](O)[C@H](O)C=O` [L-fucose], in the assay on SW1 tumors [1], the “CD4+ and CD8+ T cells, most increased subpopulation of total itICs” value is reported as “doubled”; the “increased total itICs” value is given as 10-50 fold; the splenic lymphocyte profiles entry was “without altering splenic lymphocyte profiles”. Further, the “cell surface levels of PD-L1” value in the assay with PD-L1 is “does not alter”. Also, the “HLA-DRB1 mRNA and protein levels” value in the assay on HLA-DRB1 is “remained unchanged”. The “polarization of myeloid cells (DC subpopulations)” value with BMMC (flow cytometric analysis) is listed as “polarizes myeloid cells towards a moDC phenotype”. Also, the “absolute DC numbers” value with BMMC (flow cytometric profiling of BMMCs) is reported as “without affecting absolute DC numbers”. Further, the “DC polarization of BMMC” value in the assay on BMMC (treated pre, concurrent or post maturation cocktail) is “leads to DC polarization of BMMC at any stage of myeloid development”. In the assay with CD209 (DC subsets after L-fucose treatment), the CD209 expression result is on record as “increase”. Also, the “AKT and PARP (signaling array on phosphorylated proteins)” value with CD209 (activated DCs) is listed as “significant decreases”. Further, the “DC clustering by CD11c in SW1 tumors” value in the assay on SW1 tumors [2] was “increased DC clustering”.

The values are drawn from patent publication US20260108547A1, “LEVERAGING L-FUCOSE-MEDIATED SIGNALING TO INDUCE MONOCYTE-DERIVED DENDRITIC CELL POLARIZATION” (H. LEE MOFFITT CANCER CENTER AND RESEARCH INSTITUTE, INC., priority 2022, published 2026).
